logP data for 24 compounds are collected here from ChEMBL document CHEMBL4382212, “Tetrazolylpropan-2-ones as inhibitors of fatty acid amide hydrolase: Studies on structure-activity relationships and metabolic stability” (Eur J Med Chem, 2018).

For orientation: logP means a log measure of how a compound divides between an organic and an aqueous phase. Low readings indicate a more hydrophilic compound, high ones a more lipophilic compound.

The series can be described thus: Partition coefficient, log P of the compound at 5 mM by reversed phase HPLC analysis. In kind it is physicochemical. The note with it: octanol/water.

SMILES strings stand for the structures.

`CC(Oc1ccc(Oc2ccc(C(F)(F)F)cc2)cc1)C(=O)Cn1nnc(-c2ccccc2)n1` (centres undefined): the logP at 5000 µM was found to be 6.2.
To `CCCCCCCCc1ccc(OCC(=O)Cn2nnc(-c3ccc(C(=O)OC)cc3)n2)cc1` belongs 8.
Regarding `CC(Oc1ccc(Oc2ccc(Cl)cc2)cc1)C(=O)Cn1nnc(-c2ccc(C(=O)O)cc2)n1` (centres undefined), the lipophilicity (logP) at 5000 µM came to 3.3.
To `CC(Oc1ccc(Oc2ccc(Cl)cc2)cc1)C(=O)Cn1nnc(-c2ccc(Cl)cc2)n1` (centres undefined) belongs 6.8.
To `CC(Oc1ccc(Oc2ccc(F)cc2)cc1)C(=O)Cn1nnc(-c2ccc(Cl)cc2)n1` (centres undefined) belongs 6.2; to `CC(Oc1ccc(Oc2ccc(F)cc2)cc1)C(=O)Cn1nnc(-c2ccccc2)n1` (centres undefined), 5.3; to `CCCCCCCCc1ccc(OCC(=O)Cn2nnc(-c3ccccc3)n2)cc1`, 8.
The result for `CC(Oc1ccc(Oc2ccc(F)cc2)cc1)C(=O)Cn1nnc(-c2ccc(C(=O)O)cc2)n1` (centres undefined) reads 2.7.
As for `COC(=O)c1ccc(-c2nnn(CC(=O)C(C)Oc3ccc(Oc4ccc(F)cc4)cc3)n2)cc1` (centres undefined), the logP at 5000 µM was found to be 5.4.
The result for `CCCCCCCCc1ccc(OC(C)C(=O)Cn2nnc(-c3ccc(C(=O)OC)cc3)n2)cc1` (centres undefined) reads greater than 8.
The result for `COC(=O)c1ccc(-c2nnn(CC(=O)C(C)Oc3ccc(-c4ccccc4)cc3)n2)cc1` (centres undefined) reads 5.4; that for `CC(Oc1ccc(Oc2ccc(Cl)cc2)cc1)C(=O)Cn1nnc(-c2ccccc2)n1` (centres undefined), 6.
`CCCCCCCCc1ccc(OC(C)C(=O)Cn2nnc(-c3ccc(Cl)cc3)n2)cc1` (centres undefined) came in with a log partition coefficient (logP) at 5000 µM greater than 8.
In the case of `CCCCCCCCc1ccc(OC(C)C(=O)Cn2nnc(-c3ccccc3)n2)cc1` (centres undefined), the lipophilicity (logP) at 5000 µM is greater than 8.
In turn, `CC(Oc1ccc(Oc2ccc(C(F)(F)F)cc2)cc1)C(=O)Cn1nnc(-c2ccc(Cl)cc2)n1` (centres undefined) displayed a logP at 5000 µM of 7.
With `CC(Oc1ccc(-c2ccccc2)cc1)C(=O)Cn1nnc(-c2ccccc2)n1` (centres undefined), the log partition coefficient (logP) at 5000 µM was determined as 5.3.
The result for `CC(Oc1ccc(Oc2ccc(C(F)(F)F)cc2)cc1)C(=O)Cn1nnc(-c2ccc(C(=O)O)cc2)n1` (centres undefined) reads 3.5; that for `CCCCCCCCc1ccc(OCC(=O)Cn2nnc(-c3ccc(Cl)cc3)n2)cc1`, greater than 8; that for `COC(=O)c1ccc(-c2nnn(CC(=O)C(C)Oc3ccc(Oc4ccc(C(F)(F)F)cc4)cc3)n2)cc1` (centres undefined), 6.2.
Compound `CC(Oc1ccc(-c2ccccc2)cc1)C(=O)Cn1nnc(-c2ccc(C(=O)O)cc2)n1` (centres undefined) gave a logP at 5000 µM of 2.6.
To `CCCCCCCCc1ccc(OC(C)C(=O)Cn2nnc(-c3ccc(C(=O)O)cc3)n2)cc1` (centres undefined) belongs 5.9.
The result for `CC(Oc1ccc(-c2ccccc2)cc1)C(=O)Cn1nnc(-c2ccc(Cl)cc2)n1` (centres undefined) reads 6.1.
Compound `CCCCCCCCc1ccc(OCC(=O)Cn2nnc(C(=O)O)n2)cc1` registered a logP at 5000 µM of 5.3.
For the compound `COC(=O)c1ccc(-c2nnn(CC(=O)C(C)Oc3ccc(Oc4ccc(Cl)cc4)cc3)n2)cc1` (centres undefined), the lipophilicity (logP) at 5000 µM came out at 6.1.
